# Experimental data reported in PubChem BioAssay AID2060332 (Molecular Pharmacology Branch, DTP, NCI, 2025).
# Where “and” joins values, the source holds several entries; their conditions need not be identical. Equal values may be shown once.
# Test system: LG0567-F671-PDC multi-cell spheroid viability
# Test: Anticancer human tumor LG0567-F671-PDC patient-derived lung adenocarcinoma cell line growth inhibition [IpAb]
# Settings: for viability, T/C: stronger effect = lower value
# How it was run: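 Combinations with ipatasertib or abemaciclib were tested on tumour spheroids holding HUVEC (25%) and MSC (15%) alongside 60% malignant cells. Top concentration was at or near clinical Cmax (10 microM if undefined), descending in half-log steps.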
# [1] = curve of first compound, second compound 0.01 µM
# [2] = curve of first compound, second compound 0.0316 µM
# [3] = curve of first compound, second compound 0.1 µM
# [4] = curve of first compound, second compound 0.316 µM
# [5] = curve of first compound, second compound 1 µM
# [6] = second compound 0.01 µM, first compound 0.0316 µM
# [7] = second compound 0.01 µM, first compound 0.1 µM
# [8] = second compound 0.0316 µM, first compound 0.0316 µM
# [9] = second compound 0.0316 µM, first compound 0.1 µM
# [10] = second compound 0.1 µM, first compound 0.0316 µM
# [11] = second compound 0.1 µM, first compound 0.1 µM
# [12] = second compound 0.316 µM, first compound 0.0316 µM
# [13] = second compound 0.316 µM, first compound 0.1 µM
# [14] = second compound 1 µM, first compound 0.0316 µM
# [15] = second compound 1 µM, first compound 0.1 µM
# [16] = second compound 0.1 µM, first compound 0.316 µM
# [17] = second compound 0.1 µM, first compound 1 µM
# [18] = second compound 0.1 µM, first compound 3.16 µM
# [19] = second compound 0.1 µM, first compound 10 µM
# [20] = second compound 0.316 µM, first compound 0.316 µM
# [21] = second compound 0.316 µM, first compound 1 µM
# [22] = second compound 0.316 µM, first compound 3.16 µM
# [23] = second compound 0.316 µM, first compound 10 µM
# [24] = second compound 1 µM, first compound 0.316 µM
# [25] = second compound 1 µM, first compound 1 µM
# [26] = second compound 1 µM, first compound 3.16 µM
# [27] = second compound 1 µM, first compound 10 µM
# 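Also: viability read after 7 days of drug exposure.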
# 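For viability, T/C in this document: 100% = DMSO vehicle control luminescence.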
compound,measurement,setting,value
Cn1ncnc1[C@H]1c2n[nH]c(=O)c3cc(F)cc(c23)N[C@@H]1c1ccc(F)cc1 + CCN1CCN(Cc2ccc(Nc3ncc(F)c(-c4cc(F)c5nc(C)n(C(C)C)c5c4)n3)nc2)CC1,IC50,[1],71.7 nM
same,IC50,[2],18.2 nM
same,IC50,[3],11.2 nM
same,IC50,[4],22 nM
same,IC50,[5],5.45 nM
same,"viability, T/C","second compound 0.01 µM, first compound 0.000316 µM",94.2%
same,"viability, T/C","second compound 0.01 µM, first compound 0.001 µM",89.6%
same,"viability, T/C","second compound 0.01 µM, first compound 0.00316 µM",64.2%
same,"viability, T/C","second compound 0.01 µM, first compound 0.01 µM",76.7%
same,"viability, T/C",[6],64.9%
same,"viability, T/C",[7],40.9%
same,"viability, T/C","second compound 0.0316 µM, first compound 0.000316 µM",64%
same,"viability, T/C","second compound 0.0316 µM, first compound 0.001 µM",81.5%
same,"viability, T/C","second compound 0.0316 µM, first compound 0.00316 µM",69.3%
same,"viability, T/C","second compound 0.0316 µM, first compound 0.01 µM",46.1%
same,"viability, T/C",[8],49.8%
same,"viability, T/C",[9],24.7%
same,"viability, T/C","second compound 0.1 µM, first compound 0.000316 µM",63.2%
same,"viability, T/C","second compound 0.1 µM, first compound 0.001 µM",75.8%
same,"viability, T/C","second compound 0.1 µM, first compound 0.00316 µM",63.1%
same,"viability, T/C","second compound 0.1 µM, first compound 0.01 µM",52.8%
same,"viability, T/C",[10],29.8%
same,"viability, T/C",[11],30.4%
same,"viability, T/C","second compound 0.316 µM, first compound 0.000316 µM",63.5%
same,"viability, T/C","second compound 0.316 µM, first compound 0.001 µM",72.2%
same,"viability, T/C","second compound 0.316 µM, first compound 0.00316 µM",66.5%
same,"viability, T/C","second compound 0.316 µM, first compound 0.01 µM",52.1%
same,"viability, T/C",[12],49.2%
same,"viability, T/C",[13],30%
same,"viability, T/C","second compound 1 µM, first compound 0.000316 µM",61.9%
same,"viability, T/C","second compound 1 µM, first compound 0.001 µM",67.4%
same,"viability, T/C","second compound 1 µM, first compound 0.00316 µM",56.1%
same,"viability, T/C","second compound 1 µM, first compound 0.01 µM",43.3%
same,"viability, T/C",[14],32.8%
same,"viability, T/C",[15],40.3%
CCCS(=O)(=O)Nc1ccc(F)c(C(=O)c2c[nH]c3ncc(-c4ccc(Cl)cc4)cc23)c1F + CCN1CCN(Cc2ccc(Nc3ncc(F)c(-c4cc(F)c5nc(C)n(C(C)C)c5c4)n3)nc2)CC1,IC50,[1],> 10000 nM
same,IC50,[2],> 10000 nM
same,IC50,[3],> 10000 nM
same,IC50,[4],> 10000 nM
same,IC50,[5],> 10000 nM
same,"viability, T/C",[6],104%
same,"viability, T/C",[7],140%
same,"viability, T/C","second compound 0.01 µM, first compound 0.316 µM",112%
same,"viability, T/C","second compound 0.01 µM, first compound 1 µM",145%
same,"viability, T/C","second compound 0.01 µM, first compound 3.16 µM",169%
same,"viability, T/C","second compound 0.01 µM, first compound 10 µM",168%
same,"viability, T/C",[8],93.3%
same,"viability, T/C",[9],105%
same,"viability, T/C","second compound 0.0316 µM, first compound 0.316 µM",140%
same,"viability, T/C","second compound 0.0316 µM, first compound 1 µM",121%
same,"viability, T/C","second compound 0.0316 µM, first compound 3.16 µM",156%
same,"viability, T/C","second compound 0.0316 µM, first compound 10 µM",115%
same,"viability, T/C",[10],77.4%
same,"viability, T/C",[11],98.8%
same,"viability, T/C",[16],91.6%
same,"viability, T/C",[17],113%
same,"viability, T/C",[18],154%
same,"viability, T/C",[19],92.1%
same,"viability, T/C",[12],68.8%
same,"viability, T/C",[13],86.3%
same,"viability, T/C",[20],91.7%
same,"viability, T/C",[21],108%
same,"viability, T/C",[22],80.1%
same,"viability, T/C",[23],55.4%
same,"viability, T/C",[14],66.9%
same,"viability, T/C",[15],88.3%
same,"viability, T/C",[24],73.7%
same,"viability, T/C",[25],70.4%
same,"viability, T/C",[26],76.9%
same,"viability, T/C",[27],65.1%
CC(C)n1nc(-c2ccc3oc(N)nc3c2)c2c(N)ncnc21,"viability, T/C",compound 0.000316 µM,108% and 95.6%
same,"viability, T/C",compound 0.001 µM,79.7% and 87.8%
same,"viability, T/C",compound 0.00316 µM,90.1% and 102%
same,"viability, T/C",compound 0.01 µM,64% and 55.8%
same,"viability, T/C",compound 0.0316 µM,78.1% and 50%
same,"viability, T/C",compound 0.1 µM,66.9% and 56.8%
same,IC50,curve of compound,> 100 nM
CCCS(=O)(=O)Nc1ccc(F)c(C(=O)c2c[nH]c3ncc(-c4ccc(Cl)cc4)cc23)c1F + CC(C)NCC(C(=O)N1CCN(c2ncnc3c2C(C)CC3O)CC1)c1ccc(Cl)cc1,IC50,[3],> 10000 nM
same,IC50,[4],> 10000 nM
same,IC50,[5],> 10000 nM
same,IC50,"curve of first compound, second compound 3.16 µM",> 10000 nM
same,IC50,"curve of first compound, second compound 10 µM",> 10000 nM
same,"viability, T/C",[10],100%
same,"viability, T/C",[11],119%
same,"viability, T/C",[16],111%
same,"viability, T/C",[17],137%
same,"viability, T/C",[18],162%
same,"viability, T/C",[19],147%
same,"viability, T/C",[12],77.1%
same,"viability, T/C",[13],90.5%
same,"viability, T/C",[20],94.5%
same,"viability, T/C",[21],114%
same,"viability, T/C",[22],127%
same,"viability, T/C",[23],140%
same,"viability, T/C",[14],77.3%
same,"viability, T/C",[15],78.6%
same,"viability, T/C",[24],88.3%
same,"viability, T/C",[25],115%
same,"viability, T/C",[26],124%
same,"viability, T/C",[27],82%
same,"viability, T/C","second compound 3.16 µM, first compound 0.0316 µM",88.3%
same,"viability, T/C","second compound 3.16 µM, first compound 0.1 µM",82.5%
same,"viability, T/C","second compound 3.16 µM, first compound 0.316 µM",93.8%
same,"viability, T/C","second compound 3.16 µM, first compound 1 µM",102%
same,"viability, T/C","second compound 3.16 µM, first compound 3.16 µM",82.9%
same,"viability, T/C","second compound 3.16 µM, first compound 10 µM",77.5%
same,"viability, T/C","second compound 10 µM, first compound 0.0316 µM",88.3%
same,"viability, T/C","second compound 10 µM, first compound 0.1 µM",64.1%
same,"viability, T/C","second compound 10 µM, first compound 0.316 µM",77%
same,"viability, T/C","second compound 10 µM, first compound 1 µM",84.9%
same,"viability, T/C","second compound 10 µM, first compound 3.16 µM",70.3%
same,"viability, T/C","second compound 10 µM, first compound 10 µM",57.7%
